{"source": "patent US10478423B2", "about": "“Substituted indazole derivatives active as kinase inhibitiors” (NERVIANO MEDICAL SCIENCES S.R.L., priority 2011, dated 2019)", "key": {"MOLM-13 cells": {"tested_on": "MOLM-13 cells", "experiment": "In vitro cell proliferation assay (CellTiter-Glo), MOLM-13", "assay_type": "cell-based", "conditions": "human acute leukemia cells bearing FLT3-ITD mutation, 72 h", "protocol": "(§1) The human acute leukemia MOLM-13 AND MV-4-11 cells, bearing a FLT3-ITD mutation, were seeded (5000 cells/well) in white 384 well-plates in complete medium (RPMI 1640 plus 10% Fetal bovine serum) and treated with compounds dissolved in 0.1% DMSO, 24 h after seeding. The cells were incubated at 37° C. and 5% CO2 and after 72 h the plates were processed using CellTiter-Glo assay (Promega) following the manufacturer's instruction.\n(§2) CellTiter-Glo is a homogenous method based on the quantification of the ATP present, an indicator of metabolitically active cells. ATP was quantified using a system based on luciferase and D-luciferin resultant into light generation. The luminescent signal was proportional to the number of cells present in culture.\n(§3) Briefly, 25 microL/well reagent solution were added to each well and, after 5 minutes shaking, microplates were read by Envision (PerkinElmer) luminometer. Inhibitory activity was evaluated comparing treated versus control data using Symyx Assay Explorer (Symyx Technologies Inc.) program. IC50 was calculated using sigmoidal interpolation curve."}, "MV-4-11 cells": {"tested_on": "MV-4-11 cells", "experiment": "In vitro cell proliferation assay (CellTiter-Glo), MV-4-11", "assay_type": "cell-based", "conditions": "MV4-11, human acute leukemia cells bearing FLT3-ITD mutation, 72 h", "protocol": "as §1, §2, §3"}}}
{"compound": "CN(C)c1ccc(C(=O)Nc2n[nH]c3cc(OCc4ccccc4)ccc23)cc1", "note": "[Ref. Compound]", "values": [{"measurement": "IC50", "setting": "MOLM-13 cells", "result": 3.91, "unit": "µM"}, {"measurement": "IC50", "setting": "MV-4-11 cells", "result": 5.54, "unit": "µM"}]}
